Measurements from ChEMBL document CHEMBL1201862, “PubChem BioAssay data set” (2004).
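Step 1: Grow cells in 96-well plates. Step 2: Expose to compound for 48 hours at 5 concentrations. Step 3: Interpolate endpoints linearly; if unreached, use highest concentration. The concentration for 50% growth inhibition is given as GI50.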 The source made the active and inactive calls. Cut-off read from the data, not from the text of the source: active = GI50 up to about 1.1 µM and inactive = higher.

Tests used:
Test in all cases: growth of human tumour cells (NCI), 48 h
786-0 = system: 786-0
A498 = system: A498
A549 = system: A549
ACHN = system: ACHN
CAKI-1 = system: CAKI-1
CCRF-CEM = system: CCRF-CEM
COLO 205 = system: COLO 205
DLD-1 = system: DLD-1
DMS-114 = system: DMS-114
DMS-273 = system: DMS-273
EKVX = system: EKVX
HCC 2998 = system: HCC 2998
HCT-116 = system: HCT-116
HCT-15 = system: HCT-15
HL-60 = system: HL-60
HOP-62 = system: HOP-62
HOP-92 = system: HOP-92
HT-29 = system: HT-29
IGROV-1 = system: IGROV-1
K562 = system: K562
KM-20L2 = system: KM-20L2
KM12 = system: KM12
LOX IMVI = system: LOX IMVI
LXFL 529 = system: LXFL 529
M19-MEL = system: M19-MEL
MOLT-4 = system: MOLT-4
NCI-H226 = system: NCI-H226
NCI-H23 = system: NCI-H23
NCI-H460 = system: NCI-H460
NCI-H522 = system: NCI-H522
OVCAR-3 = system: OVCAR-3
OVCAR-4 = system: OVCAR-4
OVCAR-8 = system: OVCAR-8
RPMI-8226 = system: RPMI-8226
SF-268 = system: SF-268
SF-295 = system: SF-295
SF-539 = system: SF-539
SK-MEL-28 = system: SK-MEL-28
SK-MEL-2 = system: SK-MEL-2
SK-MEL-5 = system: SK-MEL-5
SK-OV-3 = system: SK-OV-3
SN12C = system: SN12C
SNB-19 = system: SNB-19
SNB-75 = system: SNB-75
SNB-78 = system: SNB-78
SR = system: SR
SW-620 = system: SW-620
TK-10 = system: TK-10
U-251 = system: U-251
UACC-257 = system: UACC-257
UACC-62 = system: UACC-62
UO-31 = system: UO-31
HOP-18 = system: HOP-18
M14 = system: M14
Malme-3M = system: Malme-3M
OVCAR-5 = system: OVCAR-5
RXF 393 = system: RXF 393

Measured: GI50

CCCCCn1cnc2c1S(=O)(=O)N(C)C(NC(=O)c1ccccc1)=N2
> 100 µM: HCT-15
inactive: 786-0 > 100 µM | A498 > 100 µM | A549 > 100 µM | ACHN > 100 µM | CAKI-1 > 100 µM | CCRF-CEM > 100 µM | COLO 205 > 100 µM | DLD-1 > 100 µM | DMS-114 > 100 µM | DMS-273 > 100 µM | EKVX > 100 µM | HCC 2998 > 100 µM | HCT-116 > 100 µM | HL-60 > 100 µM | HOP-62 > 100 µM | HOP-92 > 100 µM | HT-29 > 100 µM | IGROV-1 > 100 µM | K562 > 100 µM | KM-20L2 > 100 µM | KM12 > 100 µM | LOX IMVI > 100 µM | LXFL 529 > 100 µM | M19-MEL > 100 µM | MOLT-4 > 100 µM | NCI-H226 > 100 µM | NCI-H23 > 100 µM | NCI-H460 > 100 µM | NCI-H522 > 100 µM | OVCAR-3 > 100 µM | OVCAR-4 > 100 µM | OVCAR-8 > 100 µM | RPMI-8226 > 100 µM | SF-268 > 100 µM | SF-295 > 100 µM | SF-539 > 100 µM | SK-MEL-28 > 100 µM | SK-MEL-2 > 100 µM | SK-MEL-5 > 100 µM | SK-OV-3 > 100 µM | SN12C > 100 µM | SNB-19 > 100 µM | SNB-75 > 100 µM | SNB-78 > 100 µM | SR > 100 µM | SW-620 > 100 µM | TK-10 > 100 µM | U-251 > 100 µM | UACC-257 > 100 µM | UACC-62 > 100 µM | UO-31 > 100 µM

Cc1noc(C)c1C1=CCCCc2ccccc21
inactive: 786-0 > 100 µM | A549 > 100 µM | ACHN 87.9 µM | CCRF-CEM 78.9 µM | COLO 205 > 100 µM | DLD-1 > 100 µM | DMS-114 > 100 µM | DMS-273 > 100 µM | EKVX 63.4 µM | HCC 2998 > 100 µM | HCT-116 > 100 µM | HL-60 21.7 µM | HOP-18 > 100 µM | HOP-62 > 100 µM | HOP-92 26.5 µM | HT-29 > 100 µM | IGROV-1 > 100 µM | K562 31.4 µM | KM-20L2 > 100 µM | KM12 > 100 µM | LXFL 529 85.5 µM | M14 79.6 µM | M19-MEL 90.2 µM | MOLT-4 25.7 µM | Malme-3M 97.5 µM | NCI-H23 > 100 µM | NCI-H460 > 100 µM | NCI-H522 36.3 µM | OVCAR-3 79.4 µM | OVCAR-4 > 100 µM | OVCAR-5 > 100 µM | OVCAR-8 > 100 µM | RPMI-8226 25.9 µM | RXF 393 72.8 µM | SF-268 > 100 µM | SF-295 > 100 µM | SF-539 > 100 µM | SK-MEL-28 > 100 µM | SK-MEL-2 > 100 µM | SK-MEL-5 34.1 µM | SK-OV-3 > 100 µM | SN12C > 100 µM | SNB-19 > 100 µM | SNB-75 23.4 µM | SNB-78 > 100 µM | SR 16.6 µM | SW-620 > 100 µM | U-251 > 100 µM | UACC-257 > 100 µM | UACC-62 64.3 µM | UO-31 > 100 µM
99.8 µM: HCT-15
